Experiments:
[1] = system: BV-2 cells; assay: CTG cell proliferation assay, LPS/IFN-γ-activated BV-2 cells; format: cell-based, Mouse
Description: Step 1: BV-2 cells in the exponential growth phase were collected, and viable cells were counted using a Vi-Cell XR cell counter. The cell suspension was adjusted to an appropriate concentration with the culture medium. 160 μL of cell suspension was added to each well of a 96-well cell culture plate, resulting in a final cell concentration of 12,000 cells per well. The culture plate was incubated for 24 hours in a 37° C., 5% CO2 incubator.
Step 2: A 10 mM DMSO compound stock solution was diluted at a ratio of 1:4 using DMSO to prepare a series of 1000× test compound solutions. These 1000× test compound solutions were further diluted at a ratio of 1:100 using cell culture medium to prepare a series of 10× test compound solutions. Finally, the 96-well plate that had been plated with cells the day before was taken out. According to the experimental well plate loading design, 20 μL of the corresponding 10× solution was added to each well, with three duplicate wells for each drug concentration. The final concentrations of the test compounds used in the experiment (i.e., 1× solutions) have a range of 10, 2.5, 0.625, 0.156, 0.0391, 0.0098, and 0.0024 μM. The final DMSO concentration in each well was 0.1%.
After the compound was added, the 96-well plate was incubated for half an hour in the 37° C., 5% CO2 incubator.
After the pre-incubation was completed, 20 μL of culture medium containing 100 ng/mL LPS and 100 ng/mL IFN-γ (final concentrations of 10 ng/mL LPS and 10 ng/mL IFN-7) was added to each well to induce the activation of BV-2 cells. The culture plate was then incubated for 24 hours in the 37° C., 5% CO2 incubator.
Step 3: After 24 hours of treatment with the compound, the culture plate was centrifuged at 1200 rpm for 5 minutes. The supernatant was pipetted into another plate, which was sealed with tinfoil and stored at −20° C. for future ELISA and Griess reagent system assays. The cell culture plate from which the supernatant had been removed was immediately used for cell proliferation assays using the CellTiter-Glo (CTG) method.
Step 4: In the cell culture plate from which the supernatant had been removed, 100 μL of PBS was added to each well. According to the instructions of the CellTiter-Glo (CTG) kit, 50 μL of pre-melted and room-temperature balanced CTG solution was added to each well. The plate was then mixed for 2 minutes using a microplate shaker. After letting it stand at room temperature for 10 minutes, the fluorescence signal value was measured using an Envision 2104 plate reader.
Step 1: Using the CTG fluorescence signal values, the percentage of surviving cells (surviving cells %) at each test concentration relative to the blank (DMSO) group was calculated. The formula was: surviving cells %=fluorescence value of the test concentration group/fluorescence value of the blank group.
Step 2: the percentage of surviving cells was plotted against the logarithm of the compound concentration. Nonlinear regression was used to fit the curve, and the formula “log(inhibitor) vs. response—Variable slope” in the software GraphPad Prism 5 was employed to calculate the IC50 value.
Step 3: The formula for calculating the inhibition rate was: inh. (%)={fluorescence value of the blank group−fluorescence value of the test concentration group}/fluorescence value of the blank (DMSO) group.

[2] = system: IL-6-induced pSTAT1 in hPBMC; assay: IL-6-induced pSTAT1 in hPBMC (flow cytometry, CD4 positive cells); format: cell-based; settings: Homo sapiens, 10 ng/mL IL-6, CD4 positive cells
Description: • 1) Preparation of culture medium: 1640 medium+10% fetal bovine serum+1% penicillin/streptomycin+1% non-essential amino acids (all percentages were v/v) • 2) Cells were thawed in a 37° C. water bath and then centrifuged. The cell concentration was adjusted to 5×10^5 cells/mL using the prepared culture medium. • 3) Cell suspension was seeded into a 96-well round-bottom plate at 200 μL/well and incubated at 37° C. for 90 minutes. • 4) Drugs were added, followed by a 37° C. incubation for 30 minutes. • 5) Cells were then stimulated by adding 10 ng/mL of IL-6 or 4 ng/mL of IL-2, followed by a 37° C. incubation for 15 minutes.
• 1) After completing the stimulation, cells were centrifuged and washed once with staining buffer (DPBS+2% bovine serum albumin). Antibodies were then added for a 30-minute staining process at 4° C. […]
• 1) Response %=[(MFI value of drug-treated well−mean MFI value of control well)/(mean MFI value of DMSO well−mean MFI value of control well)]*100% was calculated. • 2) The calculated Response % values were input into GraphPad Prism 8 software. […]

IC50 [2]: 73.1 nM
SMILES: CN(c1ncnc2[nH]ccc12)[C@@H]1CCc2cc(C#N)nn2C1 [Compound I]
inhibitory effect on cell proliferation ([1]; 24 h co-incubation with BV-2, highest test concentration 10 μM): no inhibitory effect on cell proliferation
maximum rate of increase in cell numbers compared to blank (DMSO) well ([1]; BV-2, 24 h, concentration greater than 0.1 μM): 46.39%
inhibition at up to 10 µM ([1]; Mus musculus, BV-2, 24 h co-incubation, LPS/IFN-γ, highest concentration 10 μM, read-out: Maximum inhibition rate on BV-2 cell proliferation): -46.4%
